Assay results as given in PMC10630888, “Nuclear ERK1/2 signaling potentiation enhances neuroprotection and cognition via Importinα1/KPNA2” (EMBO Molecular Medicine, 2023).
Several values for one entry are separate records, joined by “and”; a condition that tells them apart may be missing. Equal values may be shown once.

Assays:
Type in all cases: in vivo, mouse
pERK in CA1 = test: pERK in hippocampal CA1 of Tg2576 mice; settings: for pERK in hippocampal CA1 (Fig 5 panel j): individual animals
Experimental: (§1) Immunohistochemistry was performed as described in Papale et al ([2016]). Briefly, 1 h after blocking in 5% normal goat serum and 0.1% Triton X‐100 solution, free‐floating sections were incubated overnight at 4°C with one of the following primary antibodies: anti‐phospho‐p44/42 MAP kinase (Thr202/Tyr204) (1:200, Cell Signaling Technology #9101), anti‐phospho–Elk‐1 (Ser383) (1:100, Cell Signaling #9181), anti‐phospho‐Kv4.2 (Thr607)‐R (1:100, Santa Cruz sc22254‐R), anti‐phospho‐MSK‐1 (1:100 Cell Signaling Technology #9595), anti‐phospho‐MEK1/2 (Ser218/222) (1:100, sc‐7995 Santa Cruz Biotechnology), c‐Fos (1:100, sc‐52 Santa Cruz Biotechnology), tyrosine Hydroxylase (monoclonal 1:1,000, Sigma Aldrich, Italy) and anti‐DARPP‐32 (H3) (1:100, Santa Cruz Biotechnology, #sc‐271111) overnight at 4°C. Sections were then incubated with biotinylated goat anti‐rabbit IgG (1:200, Vector Laboratories) or biotinylated goat anti‐mouse (1:200, Vector Laboratories) for 2 h. The classic avidin‐peroxidase complex (ABC, Vector, UK) protocol was applied, using 3,3′‐diaminobenzidine (DAB, Sigma) as a chromogen.
Tg2576 mice were administered with RB5 or Scramble (20 mg/kg i.p.) for either 7 days, for IHC analysis, or with a single injection (20 mg/kg i.p.), for behavioral analysis.

cleaved caspase-3 = test: Cleaved caspase-3 in striatum of zQ175 females after RB5; settings: RB5 for 9 days
Experimental: (§2) Immunofluorescence was performed as described in Papale et al ([2016]). Briefly, 1 h after blocking in 5% normal goat serum, slices were incubated overnight at 4°C with the following primary antibodies: anti‐phospho (Ser10)‐acetylated (Lys14) histone H3 (1:1,000, Millipore), anti‐phospho‐S6 ribosomal protein (Ser235/236) (1:200, Cell Signaling Technology) anti‐phospho‐S6 ribosomal protein (Ser240/244) (1:200, Cell Signaling), cleaved caspase‐3 (1:200, Cell Signaling Technology), anti‐mutant Huntingtin (1:100, Developmental Studies Hybridoma Bank, University of Iowa, #MW8), and NeuN (1:1,000, Millipore). […]
In ex‐vivo and in‐vivo immunofluorescence experiments, the number of p‐S6 or p‐AcH3 immunoreactive neurons among NeuN‐positive neurons was counted in 2–3 consecutive striatal sections per mouse in four fields per section. Caspase 3‐positive cells were quantified among NeuN‐positive neurons in each slide and expressed as percentage (ratio between caspase‐3‐positive cells and total NeuN‐positive neurons) for each field acquired through the slide. The number of cells showing mutant Huntingtin inclusions were expressed as a percentage of mutant Huntingtin‐positive cells among DAPI‐positive cells. […]

[1] = test system: S6 (Ser240/244) phosphorylation; test: Striatal pS6 (Ser240/244) immunofluorescence 1 h after single injection; settings: single injection 20 mg/kg i.p., individual mice
Experimental: as §2
(§3) In ex‐vivo and in‐vivo immunofluorescence experiments, the number of p‐S6 or p‐AcH3 immunoreactive neurons among NeuN‐positive neurons was counted in 2–3 consecutive striatal sections per mouse in four fields per section. Caspase 3‐positive cells were quantified among NeuN‐positive neurons in each slide and expressed as percentage (ratio between caspase‐3‐positive cells and total NeuN‐positive neurons) for each field acquired through the slide. The number of cells showing mutant Huntingtin inclusions were expressed as a percentage of mutant Huntingtin‐positive cells among DAPI‐positive cells.

pERK = pERK in striatum of HdhQ111/+ mice treated with RB5; settings: for pERK in striatum (Fig 5 panel d): individual animals
Experimental: as §1
(§4) For in vivo immunohistochemistry experiments, images were acquired from the dorsal striatum using a Leica DM IRB microscope under a 20× objective. The number of p‐ERK, p‐MSK‐1, p‐ELK, p‐MEK‐1, p‐VG K+, c‐Fos, and DARPP‐32 positive cells was counted in 2–3 consecutive sections per mouse, bilaterally and averaged across the sections using the ImageJ software by a blind investigator to the condition. Estimation of nigral cell loss was assessed by quantifying the number of TH‐immunopositive neurons of the SNc in 360 μm‐spaced sections for each animal.

pAcH3 = test: Striatal pAcH3 immunofluorescence 1 h after single injection; settings: single injection 20 mg/kg i.p., individual mice
Experimental: Immunofluorescence was performed as described in Papale et al ([2016]). Briefly, 1 h after blocking in 5% normal goat serum, slices were incubated overnight at 4°C with the following primary antibodies: anti‐phospho (Ser10)‐acetylated (Lys14) histone H3 (1:1,000, Millipore), anti‐phospho‐S6 ribosomal protein (Ser235/236) (1:200, Cell Signaling Technology) anti‐phospho‐S6 ribosomal protein (Ser240/244) (1:200, Cell Signaling), cleaved caspase‐3 (1:200, Cell Signaling Technology), anti‐mutant Huntingtin (1:100, Developmental Studies Hybridoma Bank, University of Iowa, #MW8), and NeuN (1:1,000, Millipore). Corresponding secondary antibodies (Alexa Fluor 546 conjugated anti‐mouse (1:200, Thermo Fisher Scientific), Alexa Fluor 488 conjugated anti‐rabbit (1:500, Thermo Fisher Scientific) and Pacific Blue goat anti‐mouse (1:200, Thermo Fisher Scientific) were incubated at room temperature for 1 h. Sections stained for mutant Huntingtin were incubated with DAPI for 20 min. Sections were subsequently mounted with fluorescent mounting medium (DAKO). Single and double‐labeled images ([…]) were obtained at 40× magnification from the striatum using a laser scanning confocal microscope (Leica SP2) equipped with the corresponding lasers and appropriate filter sets to avoid the crosstalk between the fluorochromes.
as §3

[2] = test system: tyrosine hydroxylase (TH) positive cells of the SNc; test: TH-positive cells in SNc, MPTP model
Experimental: Immunohistochemistry was performed as described in Papale et al ([2016]). […]
as §4, with “animal. […]” for “animal.”
Immuno‐labeled sections were visualized under a Leica DM/RBE light microscope and an Olympus BX50 light microscope with Visiopharm Integrator System software (version 4.4.6.9). TH‐positive cells were counted at 200‐μm intervals. The total number of cells (C) for each animal was calculated using the following formula: C = ∑c × (∑A/∑a) × f, where c is the number of cells in each sampling frame, A is the inclusion area for each section, a is the area of the sampling frame for each animal, and f is the frequency of sectioning.

GRKKRRQRRRPPQGGGGGEPRRTEGVGPGVPGEVEMVKGQPFDV [RB5, six D-amino acids, acetylated N-terminus]
ERK phosphorylation in hippocampal CA1 (pERK in CA1; Tg2576 mice, 7 months old, 20 mg/kg i.p. for 7 days): restored ERK phosphorylation
pERK in hippocampal CA1 (Fig 5 panel j) (pERK in CA1; Tg2576 mice): 12.58 and 9.08 and 13.47 and 9.49 and 10.2 and 10.95 and 9.29 and 11.78
pERK in hippocampal CA1 (Fig 5 panel j) (pERK in CA1; WT mice): 8.46 and 10.53 and 9.48 and 11.97 and 13.27 and 10.48 and 8.7
Preapoptotic marker caspase-3 in striatum (cleaved caspase-3): very significant reduction
pS6 (Ser240/244) positive neurons in striatum [1]: no effect
ERK activity (pERK) in striatum (pERK; 10 month-old HdhQ111/+ mice, 20 mg/kg i.p. for 8 days): enhancing ERK activity
pERK in striatum (Fig 5 panel d) (pERK; HdhQ111/+ mice): 485.6 and 573.909 and 510.978 and 613 and 540.374 and 579.569 and 517.606 and 519.5 and 515.6
pERK in striatum (Fig 5 panel d) (pERK; WT mice): 416.7 and 470.92 and 371.49 and 542.1 and 453.63 and 361.4 and 405.17 and 381.6
pAcH3 positive neurons in striatum (pAcH3; ERK1+/+ (WT) mice): enhanced pERK and pAcH3 in WT
pAcH3 positive neurons in striatum (pAcH3; ERK1-/- mice): not in ERK1 KO mice
pAcH3 positive neurons in striatum (pAcH3; 1 h): selectively activated
Tyrosine hydroxylase (TH) loss in SNc ([2]; MPTP 20 mg/kg i.p. and RB5 20 mg/kg i.p. for 4 days): prevented tyrosine hydroxylase (TH) loss
TH-positive cells in SNc (Fig 5 panel g) ([2]; MPTP model, individual animals): 3818.38 and 2495.7 and 4195.82 and 2081.4 and 2629.68 and 4880.04 and 2139.82 and 2203.06 and 3349.83 and 3862.19 and 2316.4 and 3288.79 and 3386.28
